Data reported in patent publication US9192604B2, “Method of administration and treatment” (GlaxoSmithKline Intellectual Property (No. 2) Limited, priority 2011, dated 2015).
Where two headings read alike, the source gives them in different places.

Assays:
MSTO-211H cells = assay: Anchorage-independent growth-death assay (methylcellulose, CellTiter-Glo, 6 days); format: cell-based, human; conditions: for IC50: Homo sapiens
Method: (§1) Five human mesothelioma cell lines and two additional human lung cancer cell lines available from the ATCC were used in these studies. Cells were grown in RPMI1640 media containing 10% FBS, 1% L-glutamine, 1% sodium pyruvate under standard cell culture conditions. The mesothelioma cell lines: NCI-H2052, MSTO-211H, NCI-H28, NCI-H226, NCI-H2452, and additional lung lines: A549 and SW-1573. An additional three mesothelioma cell lines, Mero-41, Mero-82, and Mero-14, were grown under identical conditions.
(§2) The cellular response to Compound A was evaluated in an anchorage-independent cell growth assay that quantified the extent of cell growth inhibition and the net change in cell population. The assay was performed in black, clear bottom, untreated 384-well plates (Greiner #781096). It is important to use either non-tissue culture treated or Low Attachment plates to prevent cells from adhering to the plate during the assay. In brief, the assay was performed as described below.
(§3) A 1% (weight/volume) stock of methylcellulose solution was prepared by dissolving 5 grams of sterilized methylcellulose (Sigma #M0512) in 495 mL of cell culture medium. Here, RPMI1640 media containing 10% FBS, 1% L-glutamine, 1% sodium pyruvate was added to the cooled methylcellulose that had been placed in a glass container and autoclaved to sterilize. Media can be substituted if the cells require different cell culture medium for growth. The dissolution often took a day with vigorous stirring at 4° C. maintaining sterile conditions.
(§4) Cells were plated into a 384 well plate with assay conditions of 0.65% methylcellulose (final concentration) and 1000 cells per well in a final volume of 48 μL. This was achieved by diluting cells harvested from culture and re-suspended in growth medium (dilute to 2.0833×10^4 cells/mL) with the 1% methylcellulose. The cells were mixed by inversion to distribute evenly, bubbles were dispersed and 48 μL was placed into the well with a positive displacement pipette. The plates were placed in a cell culture incubator containing 5% CO2 at 37° C.
(§5) Serial dilution of compound in DMSO was done in a 384 well plate starting with 20 μL of stock compound solution in the first column and 10 μL of DMSO in the other wells. Ten μL from the compound well was transferred into the DMSO containing well, mixed, and the serial dilution was continued with 10 μL transfers across the plate. Then, 4 μL of this DMSO diluted compound was added into wells of a new 384 well plate containing 105 μL of appropriate growth medium. This ‘compound plate’ was used to dose the assay plates containing cells in methylcellulose.
(§6) To initiate the assay, two μL from each well of the ‘compound plate’ were added to individual wells of the ‘assay plates,’ each well containing the 48 μL of cells in methylcellulose. These assay plates were placed in the cell culture incubator for 6 days. One plate was selected at random and developed with Cell TiterGlo (CTG) at the time of compound addition to represent the time equal zero (T0) plate, i.e. to represent the number of cells at the time of compound addition.
(§7) On day 6, the assay was stopped by developing the plates, placing a black sticker on bottom of each plate to block light, adding 25 μL of CTG, and incubating the plates for 20 minutes at room temperature. The plates were scanned using a luminescence protocol on the EnVision (Perkin-Elmer).
(§8) Results were expressed as a percent of the T0 value and plotted against the compound concentration. […] The cellular response was determined by fitting the concentration response curves using a 4-parameter curve fit equation and determining the concentration that inhibited growth by 50% (gIC50). The gIC50 value is the midpoint of the growth window (between T0 and growth of DMSO controls). […]

Mero-14 cells = assay: as above; format: cell-based, human; conditions: second anchorage-independent assay, Mero-14, merlin negative
Method: as §1, §2, §3, §4, §5, §6, §7, §8

Mero-41 cells = assay: as above; format: cell-based, human; conditions: second anchorage-independent assay, Mero-41, merlin negative
Method: as §1, §2, §3, §4, §5, §6, §7, §8

Mero-82 cells = assay: as above; format: cell-based, human; conditions: second anchorage-independent assay, Mero-82, merlin negative
Method: as §1, §2, §3, §4, §5, §6, §7, §8

NCI-H2052 cells = assay: as above; format: cell-based, human; conditions: for IC50: Homo sapiens, read-out: Growth Inhibition gIC50
Method: as §1, §2, §3, §4, §5, §6, §7, §8

NCI-H226 cells = assay: as above; format: cell-based, human; conditions: second anchorage-independent assay, NCI-H226, merlin negative
Method: as §1, §2, §3, §4, §5, §6, §7, §8

[1] = system: merlin negative cell lines; assay: Anchorage-independent growth-death assay, merlin negative cell line panel; format: cell-based; conditions: Homo sapiens, ALL5; second anchorage-independent assay; all 5 merlin negative cell lines; read-out: gIC50 values
Method: as §1
The cellular response to Compound A was evaluated in an anchorage-independent cell growth assay that quantified the extent of cell growth inhibition and the net change in cell population. The assay was performed in black, clear bottom, untreated 384-well plates (Greiner #781096). […]
as §7
Results were expressed as a percent of the T0 value and plotted against the compound concentration. […] The cellular response was determined by fitting the concentration response curves using a 4-parameter curve fit equation and determining the concentration that inhibited growth by 50% (gIC50). […]

[2] = system: patients with mesothelioma; assay: Phase I clinical study, anti-tumor activity (RECIST 1.1, Kaplan-Meier PFS) by merlin status; format: in vivo, human
Source text: A multi-part, Phase I study was designed to determine the maximum tolerated dose (MTD), safety, tolerability, pharmacokinetics (PK), pharmacodynamics (PD), and anti-tumor activity of Compound A in patients with advanced solid tumors. Part 1 of the study identified the MTD using a dose escalation procedure, and is described herein. Parts 2-3 are ongoing. Part 2 further explores the safety and tolerability of Compound A at or below the MTD, and Part 3 evaluates the pharmacodynamics of Compound A at doses at and below the MTD. Part 4 was not opened for patient accrual at the time of this summary and will explore the safety, tolerability, pharmacokinetics and clinical activity of Compound A in patients with recurrent glioblastoma multiforme. Part 5 was not opened for patient accrual at the time of this summary and will explore the pharmacokinetics of Compound A over several weeks of administration. Patients with mesothelioma were eligible to participate, e.g, in Part 1, of the study. Patients with mesothelioma were eligible to participate in Parts 1-3 of the study at the time the data below were collected.
Patients 18 years old with advanced solid tumors with histologically or cytologically confirmed diagnosis of a solid tumor malignancy that was not responsive to accepted standard therapies or for which there is no standard or curative therapy were eligible. All patients provided signed informed consent. […] In Parts 2-3 of the study, patients with tumors reported in the literature to overexpress FAK that are not responsive to accepted standard therapies or for which there were no standard or curative therapies were included. Subjects in Part 3 were also required to have solid tumors amenable to biopsy.
Patients with an active gastrointestinal disease known to interfere with the pharmacokinetics of drugs or prior resection of the small intestine were ineligible. Other exclusion criteria included unresolved toxicity>Grade 1 from previous anticancer therapy except alopecia, QTcF interval>450 msecs in males (470 in females) or congenital long QT syndrome, history of acute coronary syndromes, Class II-IV heart failure as defined by the New York Heart Association, symptomatic or untreated brain metastases, primary malignancy of the central nervous system (in Parts 1-3), nursing females, consumption of dietary substances or prohibited medications as defined in the protocol, or any serious and/or unstable pre-existing medical, psychiatric, or other condition that could interfere with subject safety or obtaining informed consent.
Measurements to evaluate safety included weight, heart rate, blood pressure, temperature, clinical laboratory tests, 12-lead ECG, and neurologic and physical evaluation. Adverse events were assessed throughout the study using the CTCAE v4.0, Common Terminology Criteria for Adverse Events (CTCAE) Version 4.0, US Department of Health and Human Services, National Institutes of Health, National Cancer Institute, May 2009.
Disease assessment was performed at screening and every 6 weeks after the start of dosing. Response was recorded as complete response (CR), partial response (PR), stable disease (SD), or progressive disease (PD) according to the RECIST Version 1.1.
To determine if loss of merlin in the current Phase I mesothelioma population was predictive of response to Compound A, merlin levels were assessed in archival tissue (FFPE) collected at screening by immunohistochemistry (IHC), and the result correlated to clinical endpoint of median progression free survival (PFS).
A custom IHC assay was developed by Mosaic laboratories, Inc, employing a rabbit polyclonal antibody (Santa Cruz Biotechnology, Inc, catalog # SC332) using a dilution of 1:1600. The antibody signal was evaluated by Envision+rabbit HRP (DAKO) detection kit, and the staining intensity (Grade 0-3+) was used to categorize merlin status (merlin positive=wildtype or merlin negative=loss of merlin) of the clinical samples tested. […]

[3] = Homo sapiens, read-out: Growth Inhibition gIC50
[4] = second anchorage-independent assay, NCI-H2052, merlin negative
[5] = mesothelioma patients, 26 with radiologic assessments, RECIST 1.1

SMILES: CONC(=O)c1ccccc1Nc1cc(Nc2cc(C)nn2C(C)C)ncc1Cl [Compound A, 2-[(5-chloro-2-{[3-methyl-1-(1-methylethyl)-1H-pyrazol-5-yl]amino}-4-pyridinyl)amino]-N-(methyloxy)benzamide]
- IC50 (MSTO-211H cells; 144 h, initial anchorage-independent assay, MSTO-211H, NF2 wild-type, merlin positive, 6 days, read-out: Growth Inhibition gIC50): 3590 nM
- IC50 (MSTO-211H cells; second anchorage-independent assay, MSTO-211H, merlin positive, read-out: Growth Inhibition gIC50): 10900 nM
- IC50 (MSTO-211H cells; second anchorage-independent assay, merlin positive cell line (MSTO-211H), read-out: Concentration required for 50% growth inhibition): ~10000 nM
- Net Pop. change Ymin-T0 (MSTO-211H cells; initial anchorage-independent assay, MSTO-211H, NF2 wild-type, 6 days, highest concentration ~30 μM): 343%
- Net Population Change Ymin-T0 (MSTO-211H cells; second anchorage-independent assay, MSTO-211H, merlin positive): 367%
- IC50 (Mero-14 cells; [3]): 63 nM
- Net Population Change Ymin-T0 (Mero-14 cells): −55%
- IC50 (Mero-41 cells; [3]): 54 nM
- Net Population Change Ymin-T0 (Mero-41 cells): −54%
- IC50 (Mero-82 cells; [3]): 59 nM
- Net Population Change Ymin-T0 (Mero-82 cells): −22%
- IC50 (NCI-H2052 cells; 144 h, initial anchorage-independent assay, NCI-H2052, NF2 mutant, merlin negative, 6 days): 186 nM
- IC50 (NCI-H2052 cells; [4]): 236 nM
- Net Pop. change Ymin-T0 (NCI-H2052 cells; initial anchorage-independent assay, NCI-H2052, NF2 mutant, 6 days): −3%
- Net Population Change Ymin-T0 (NCI-H2052 cells; [4]): 7%
- IC50 (NCI-H226 cells; [3]): 196 nM
- Net Population Change Ymin-T0 (NCI-H226 cells): −18%
- IC50 [1]: < 250 nM
- Overall median progression free survival (PFS) ([2]; all mesothelioma patients, 95% CI 9.7, 24.1, Kaplan-Meier): 17.7 weeks
- Patients with PD as best response to treatment [2, 5]: 9 patients
- Patients with SD as best response to treatment [2, 5]: fourteen
- Patients with non-CR/non-PD as best response to treatment [2, 5]: three
- PR or CR; minor responses ([2]; mesothelioma patients, RECIST 1.1): no patients experienced a PR or CR, minor responses in some patients with mesothelioma were seen
- Merlin negative patients remaining on study for more than four months ([2]; mesothelioma, merlin negative): Seven of 14
- Median PFS in merlin negative subjects ([2]; mesothelioma, merlin negative, n=14, 95% CI 6.0, 29.3): 24.1 weeks
- Merlin positive patients remaining on study for more than four months ([2]; mesothelioma, merlin positive): three of nine
- Median PFS in merlin positive subjects ([2]; mesothelioma, merlin positive, n=9, 95% CI 7.3, undefined): 11.4 weeks
